{"source": "patent US20240382491A1", "about": "“METHODS FOR TREATING NEUROGENERATIVE DISEASES” (PTC THERAPEUTICS, INC., priority 2021, published 2024)"}
{"test_system": "MAPT 3R mRNA (Microtubule associated protein Tau)", "assay": "RT-qPCR Assay to Quantify MAPT 3R mRNA in Cells", "type": "cell-based", "conditions": "MAPT 3R mRNA by RT-qPCR, GAPDH assay in same reaction; cells treated 24 h; 7-point concentration curve", "units": {"EC (2-fold increase)": "µM"}}
{"smiles": "C[C@H](N)Cc1[nH]c2nc(Cl)nc(NCc3ccco3)c2c1F", "note": "[Cpd 10, 6-[(2S)-2-aminopropyl]-2-chloro-5-fluoro-N-[(furan-2-yl)methyl]-7H-pyrrolo[2,3-d]pyrimidin-4-amine]", "EC (2-fold increase)": "0.05 to 0.5"}
{"smiles": "CNCCc1[nH]c2nc(Cl)nc(NCc3ccco3)c2c1Cl", "note": "[Cpd 17, 2,5-dichloro-N-[(furan-2-yl)methyl]-6-[2-(methylamino)ethyl]-7H-pyrrolo[2,3-d]pyrimidin-4-amine]", "EC (2-fold increase)": "1 to 1.5"}
{"smiles": "C[C@H](N)Cc1c(Cl)c2c(NCc3ccco3)nc(Cl)nc2n1C", "note": "[Cpd 23, 6-[(2S)-2-aminopropyl]-2,5-dichloro-N-[(furan-2-yl)methyl]-7-methyl-7H-pyrrolo[2,3-d]pyrimidin-4-amine]", "EC (2-fold increase)": "0.05 to 0.5"}
{"smiles": "C[C@H](N)Cc1c(F)c2c(NCc3ccco3)nc(Cl)nc2n1C", "note": "[Cpd 24, 6-[(2S)-2-aminopropyl]-2-chloro-5-fluoro-N-[(furan-2-yl)methyl]-7-methyl-7H-pyrrolo[2,3-d]pyrimidin-4-amine]", "EC (2-fold increase)": "0.05 to 0.5"}
{"smiles": "Cc1c(C[C@H](C)N)n(C)c2nc(Cl)nc(NCc3ccco3)c12", "note": "[Cpd 35, 6-[(2S)-2-aminopropyl]-2-chloro-N-[(furan-2-yl)methyl]-5,7-dimethyl-7H-pyrrolo[2,3-d]pyrimidin-4-amine]", "EC (2-fold increase)": "0.05 to 0.5"}
{"smiles": "C[C@H](N)Cc1c(F)c2c(NCc3nccs3)nc(Cl)nc2n1C", "note": "[Cpd 38, 6-[(2S)-2-aminopropyl]-2-chloro-5-fluoro-7-methyl-N-[(1,3-thiazol-2-yl)methyl]-7H-pyrrolo[2,3-d]pyrimidin-4-amine]", "EC (2-fold increase)": "0.5 to 1"}
{"smiles": "C[C@H](N)Cc1c(F)c2c(NCc3ccncc3F)nc(Cl)nc2n1C", "note": "[Cpd 41, 6-[(2S)-2-aminopropyl]-2-chloro-5-fluoro-N-[(3-fluoropyridin-4-yl)methyl]-7-methyl-7H-pyrrolo[2,3-d]pyrimidin-4-amine]", "EC (2-fold increase)": "0.5 to 1"}
{"smiles": "C[C@H](N)Cc1c(F)c2c(NCc3ccncc3)nc(Cl)nc2n1C", "note": "[Cpd 43, 6-[(2S)-2-aminopropyl]-2-chloro-5-fluoro-7-methyl-N-[(pyridin-4-yl)methyl]-7H-pyrrolo[2,3-d]pyrimidin-4-amine]", "EC (2-fold increase)": "0.5 to 1"}
{"smiles": "C[C@H](N)Cc1c(F)c2c(NCc3cccs3)nc(Cl)nc2n1C", "note": "[Cpd 49, 6-[(2S)-2-aminopropyl]-2-chloro-5-fluoro-7-methyl-N-[(thiophen-2-yl)methyl]-7H-pyrrolo[2,3-d]pyrimidin-4-amine]", "EC (2-fold increase)": "0.05 to 0.5"}
{"test_system": "IKBKAP gene", "assay": "not given", "conditions": "as reported in International Publication No. WO2016/115434; cited from earlier work"}
{"smiles": "Clc1nc(NCc2ccncc2)c2cc[nH]c2n1", "note": "[Comparison Compound 1, 2-chloro-N-(pyridin-4-ylmethyl)-7H-pyrrolo[2,3-d]pyrimidin-4-amine]", "potency in correcting mRNA splicing and promoting exon 20 inclusion in the IKBKAP gene": "very potent"}
